Laboratory results from article PMC7902475 (Traffic (Copenhagen, Denmark), 2020).
Changes are numbered by the printed parent chain.

Legend:
[1] = molecular target: T1, ALFY-FYVE (Homo sapiens, UniProt Q8IZQ1, E3471K); experiment: 1H-15N HSQC NMR titration, chemical shift perturbation fit; format: binding
T1 sequence (Q8IZQ1 3428-3518 E3471K): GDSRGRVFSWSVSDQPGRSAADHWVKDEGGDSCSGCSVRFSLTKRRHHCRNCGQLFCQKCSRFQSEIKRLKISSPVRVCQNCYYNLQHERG

[2] = molecular target: T2, ALFY-FYVE (Homo sapiens, UniProt Q8IZQ1); experiment: as above; format: binding
T2 sequence (Q8IZQ1 3428-3518): T1 sequence (Q8IZQ1 3428-3518 E3471K) with K44E

- Kd [1]: 82.8 to 270 µM
- Kd [2]: 50.5 to 184 µM
SMILES: O=P(O)(O)O[C@@H]1[C@H](O)[C@H](OP(=O)(O)O)[C@@H](O)[C@H](O)[C@H]1O [Ins(1,3)P2]
